Test system: CD8+ T cells (PBMCs of malaria patients)
Test: EXP1-specific CD8+ T cell response, ICS for IFNγ after in vitro culture
Assay type: cell-based, human
Conditions: patients HH-16, HH-18, HH-20 and HH-25; coincided with a CD4+ T cell response against the same peptide
Protocol: Cryopreserved PBMCs were thawed and cultivated at 1–5 × 10^6 cells/ml for optimal results in 500 μl of R10 medium (RPMI 1640 medium with 10% FCS (Sigma Aldrich), 1% HEPES buffer and 1% Penicillin-Streptomycin). PBMCs were stimulated with EXP1 peptide pool 1 [EXP1 peptide 1-10 (EXP1-P01-10)], pool 2 (EXP1-P11-20) or pool 3 (EXP1-P21-31) (Table 2) at a final concentration of 10 μg/ml, together with 1 μg/ml of anti-CD28 and anti-CD49d antibodies [BD FastImmune™, clone: L293 (CD28) and clone: L25 (CD49d)] for 14 days. Medium with recombinant IL-2 (50 U/ml) was added when necessary. After 14 days, cells were re-stimulated with single EXP1-peptides (final concentration 10 μg/ml) and then assayed for interferon-γ (IFNγ) production by ELISPOT and intracellular cytokine staining (ICS) as previously described ([28]).
ICS was performed as previously described ([26], [28]). 5 × 10^5 PBMCs were stimulated with the corresponding EXP1 peptide at a final concentration of 10 μg/ml before blocking the secretion with 10 μg/ml Brefeldin A (Sigma Aldrich) 1 h after stimulation. […] Cells were then analyzed on a BD LSRFortessa (BD Bioscience). […]

For “KKGSGEPLIDVHDLI [EXP1-P09, overlapping peptide of P. falciparum EXP1, aa 40–54]”, the “CD8+ T cell response” value was “CD8+ T cell response”.

Reference: publication PMC6993587, “Detection of EXP1-Specific CD4+ T Cell Responses Directed Against a Broad Range of Epitopes Including Two Promiscuous MHC Class II Binders During Acute Plasmodium falciparum Malaria” (Frontiers in Immunology, 2020)
